# Results reported in patent US10730884B2, “Substituted indole compound derivatives as dengue viral replication inhibitors” (Janssen Pharmaceuticals, Inc., priority 2016, dated 2020).
# Test system: DENV-2 16681 strain
# Assay: DENV-2 antiviral assay (eGFP-labeled virus, Vero cells)
# Format: cell-based, Dengue virus
# Conditions: DENV-2 16681 eGFP, Vero cells, MOI 0.5, 3 days
# Procedure: The antiviral activity of all the compounds of the invention was tested against the DENV-2 16681 strain which was labeled with enhanced green fluorescent protein (eGPF). The culture medium consists of minimal essential medium supplemented with 2% of heat-inactivated fetal calf serum, 0.04% gentamycin (50 mg/mL) and 2 mM of L-glutamine. Vero cells, obtained from ECACC, were suspended in culture medium and 25 μL was added to 384-well plates (2500 cells/well), which already contain the antiviral compounds. Typically, these plates contain a 5-fold serial dilution of 9 dilution steps of the test compound at 200 times the final concentration in 100% DMSO (200 nL). […] Finally, each plate contains wells which are assigned as virus controls (containing cells and virus in the absence of compound), cell controls (containing cells in the absence of virus and compound) and medium controls (containing medium in the absence of cells, virus and compounds). To the wells assigned as medium control, 25 μL of culture medium was added instead of Vero cells. Once the cells were added to the plates, the plates were incubated for 30 minutes at room temperature to allow the cells to distribute evenly within the wells. Next, the plates were incubated in a fully humidified incubator (37° C., 5% CO2) until the next day. Then, DENV-2 strain 16681, labeled with eGFP, was added at a multiplicity of infection (MOI) of 0.5. Therefore, 15 μL of virus suspension was added to all the wells containing test compound and to the wells assigned as virus control. In parallel, 15 μL of culture medium was added to the medium and cell controls. Next, the plates were incubated for 3 days in a fully humidified incubator (37° C., 5% CO2). At the day of the read out, the eGFP fluorescence was measured using an automated fluorescence microscope at 488 nm (blue laser). Using an in-house LIMS system, inhibition dose response curves for each compound were calculated and the half maximal effective concentration (EC50) was determined. Therefore, the percent inhibition (I) for every test concentration is calculated using the following formula: I=100*([…])/(SVC−SCC); ST, SCC and SVC are the amount of eGFP signal in the test compound, cell control and virus control wells, respectively. The EC50 represents the concentration of a compound at which the virus replication is inhibited with 50%, as measured by a 50% reduction of the eGFP fluorescent intensity compared to the virus control. The EC50 is calculated using linear interpolation (Table 1).
row,Compound,EC50
1,"COc1cc(NC(C(=O)c2c[nH]c3cc(F)ccc23)c2ccc(Cl)cc2OC)cc(OCCOP(=O)(O)O)c1 (single isomer, unassigned) [Compound 13B-P]",13 nM
2,"COc1cc(NC(C(=O)c2c[nH]c3cc(F)c(C)cc23)c2ccc(F)cc2OC)cc(OCCO)c1 (single isomer, unassigned) [Compound 3B]",250 nM
3,"COc1cc(NC(C(=O)c2c[nH]c3c4c(ccc23)OCC4)c2ccc(F)cc2OC)cc(OCCO)c1 (single isomer, unassigned) [Compound 8B]",820 nM
4,"COc1cc(NC(C(=O)c2c[nH]c3ccc(S(F)(F)(F)(F)F)cc23)c2ccc(Cl)cc2OC)cc(OCCO)c1 (single isomer, unassigned) [Compound 15A]",0.17 nM
5,"COc1cc(NC(C(=O)c2c[nH]c3ccc(S(F)(F)(F)(F)F)cc23)c2ccc(Cl)cc2OC)cc(OCCO)c1 (single isomer, unassigned) [Compound 15B]",13 nM
6,"COc1cc(NC(C(=O)c2c[nH]c3cc4c(cc23)CCO4)c2ccc(F)cc2OC)cc(OCCO)c1 (single isomer, unassigned) [Compound 7A]",1 nM
7,"COc1cc(NC(C(=O)c2c[nH]c3ccc(C)cc23)c2ccc(F)cc2OC)cc(OCCO)c1 (single isomer, unassigned) [Compound 5B]",820 nM

# Same assay, conditions: SI=CC50/EC50, DENV-2 antiviral assay
row,Compound,SI
1,"COc1cc(NC(C(=O)c2c[nH]c3cc(F)ccc23)c2ccc(Cl)cc2OC)cc(OCCOP(=O)(O)O)c1 (single isomer, unassigned) [Compound 13B-P]",822
2,"COc1cc(NC(C(=O)c2c[nH]c3cc(F)c(C)cc23)c2ccc(F)cc2OC)cc(OCCO)c1 (single isomer, unassigned) [Compound 3B]",31
3,"COc1cc(NC(C(=O)c2c[nH]c3c4c(ccc23)OCC4)c2ccc(F)cc2OC)cc(OCCO)c1 (single isomer, unassigned) [Compound 8B]",14
4,"COc1cc(NC(C(=O)c2c[nH]c3ccc(S(F)(F)(F)(F)F)cc23)c2ccc(Cl)cc2OC)cc(OCCO)c1 (single isomer, unassigned) [Compound 15A]",16000
5,"COc1cc(NC(C(=O)c2c[nH]c3ccc(S(F)(F)(F)(F)F)cc23)c2ccc(Cl)cc2OC)cc(OCCO)c1 (single isomer, unassigned) [Compound 15B]",460
6,"COc1cc(NC(C(=O)c2c[nH]c3cc4c(cc23)CCO4)c2ccc(F)cc2OC)cc(OCCO)c1 (single isomer, unassigned) [Compound 7A]",13700
7,"COc1cc(NC(C(=O)c2c[nH]c3ccc(C)cc23)c2ccc(F)cc2OC)cc(OCCO)c1 (single isomer, unassigned) [Compound 5B]",14

# Test system: DENV-1 strain TC974#666
# Assay: Tetravalent RT-qPCR assay, serotype 1
# Format: cell-based, Dengue virus
# Conditions: Dengue virus, DENV1, Vero, 72 h, RT-qPCR serotype 1 TC974#666, Protocol A, Vero cells, day 3; read-out: EC50
# Procedure: (§1) The antiviral activity of the compounds of the invention was tested against DENV-1 strain TC974#666 (NCPV), DENV-2 strain 16681, DENV-3 strain H87 (NCPV) and DENV-4 strain H241 (NCPV) in a RT-qPCR assay. Therefore, Vero cells were infected with either DENV-1, or -2, or -3, or -4 in the presence or absence of test compounds. At day 3 post-infection, the cells were lysed and cell lysates were used to prepare cDNA of both a viral target (the 3′UTR of DENV; Table 2) and a cellular reference gene (β-actin, Table 2). Subsequently, a duplex real time PCR was performed on a Lightcycler480 instrument. The generated Cp value is inversely proportional to the amount of RNA expression of these targets. Inhibition of DENV replication by a test compound result in a shift of Cp's for the 3′UTR gene. On the other hand, if a test compound is toxic to the cells, a similar effect on β-actin expression will be observed. The comparative ΔΔCp method is used to calculate EC50, which is based on the relative gene expression of the target gene (3′UTR) normalized with the cellular housekeeping gene (β-actin). In addition, CC50 values are determined based on the Cp values acquired for the housekeeping gene β-actin.
# (§2) The culture medium consisted of minimal essential medium supplemented with 2% of heat-inactivated fetal calf serum, 0.04% gentamycin (50 mg/mL) and 2 mM of L-glutamine. Vero cells, obtained from ECACC, were suspended in culture medium and 75 μL/well was added in 96-well plates (10000 cells/well), which already contain the antiviral compounds. […] In addition, each plate contains wells which are assigned as virus controls (containing cells and virus in the absence of compound) and cell controls (containing cells in the absence of virus and compound). Once the cells were added in the plates, the plates were incubated in a fully humidified incubator (37° C., 5% CO2) until the next day. Dengue viruses serotype-1, 2, 3 and 4 were diluted in order to obtain a Cp of ˜22-24 in the assay. Therefore, 25 μL of virus suspension was added to all the wells containing test compound and to the wells assigned as virus control. In parallel, 25 μL of culture medium was added to the cell controls. Next, the plates were incubated for 3 days in a fully humidified incubator (37° C., 5% CO2). After 3 days, the supernatant was removed from the wells and the cells were washed twice with ice-cold PBS (˜100 μL). The cell pellets within the 96-well plates were stored at −80° C. for at least 1 day. Next, RNA was extracted using the Cells-to-CT™ lysis kit, according to the manufacturer's guideline (Life Technologies). The cell lysates can be stored at −80° C. or immediately used in the reverse transcription step.
# (§3) In preparation of the reverse transcription step, mix A (table 3A) was prepared and 7.57 μL/well was dispensed in a 96-well plate. After addition of 5 μL of the cell lysates, a five minute denaturation step at 75° C. was performed (table 3B). Afterwards, 7.43 μL of mix B was added (table 3C) and the reverse transcription step was initiated (table 3D) to generate cDNA.
# (§4) Finally, a RT-qPCR mix was prepared, mix C (table 4A), and 22.02 μL/well was dispensed in 96-well LightCycler qPCR plates to which 3 μL of cDNA was added and the qPCR was performed according to the conditions in table 4B on a LightCycler 480.
# (§5) Using the LightCycler software and an in-house LIMS system, dose response curves for each compound were calculated and the half maximal effective concentration (EC50) and the half maximal cytotoxic concentration (CC50) were determined (Tables 5-8).
row,Compound,EC50
1,"COc1cc(NC(C(=O)c2c[nH]c3ccc(S(F)(F)(F)(F)F)cc23)c2ccc(Cl)cc2OC)cc(OCCO)c1 (single isomer, unassigned) [Compound 15A]",0.13 nM
2,"COc1cc(NC(C(=O)c2c[nH]c3cc4c(cc23)CCO4)c2ccc(F)cc2OC)cc(OCCO)c1 (single isomer, unassigned) [Compound 7A]",7.8 nM

# Same assay, conditions: RT-qPCR serotype 1 TC974#666
row,Compound,SI
1,"COc1cc(NC(C(=O)c2c[nH]c3ccc(S(F)(F)(F)(F)F)cc23)c2ccc(Cl)cc2OC)cc(OCCO)c1 (single isomer, unassigned) [Compound 15A]",16100
2,"COc1cc(NC(C(=O)c2c[nH]c3cc4c(cc23)CCO4)c2ccc(F)cc2OC)cc(OCCO)c1 (single isomer, unassigned) [Compound 7A]",713

# Test system: DENV-2 strain 16681
# Assay: Tetravalent RT-qPCR assay, serotype 2
# Format: cell-based, Dengue virus
# Conditions: Dengue virus, DENV2, Vero, 72 h, RT-qPCR serotype 2 16681, Protocol A, Vero cells, day 3
# Procedure: as §1, §2, §3, §4, §5
row,Compound,EC50
1,"COc1cc(NC(C(=O)c2c[nH]c3ccc(S(F)(F)(F)(F)F)cc23)c2ccc(Cl)cc2OC)cc(OCCO)c1 (single isomer, unassigned) [Compound 15A]",0.11 nM
2,"COc1cc(NC(C(=O)c2c[nH]c3cc4c(cc23)CCO4)c2ccc(F)cc2OC)cc(OCCO)c1 (single isomer, unassigned) [Compound 7A]",1.6 nM

# Same assay, conditions: RT-qPCR serotype 2 16681
row,Compound,SI
1,"COc1cc(NC(C(=O)c2c[nH]c3ccc(S(F)(F)(F)(F)F)cc23)c2ccc(Cl)cc2OC)cc(OCCO)c1 (single isomer, unassigned) [Compound 15A]",21200
2,"COc1cc(NC(C(=O)c2c[nH]c3cc4c(cc23)CCO4)c2ccc(F)cc2OC)cc(OCCO)c1 (single isomer, unassigned) [Compound 7A]",5930

# Test system: DENV-3 strain H87
# Assay: Tetravalent RT-qPCR assay, serotype 3
# Format: cell-based, Dengue virus
# Conditions: Dengue virus, DENV3, Vero, 72 h, RT-qPCR serotype 3 H87, Protocol A, Vero cells, day 3; read-out: EC50
# Procedure: as §1, §2, §3, §4, §5
row,Compound,EC50
1,"COc1cc(NC(C(=O)c2c[nH]c3ccc(S(F)(F)(F)(F)F)cc23)c2ccc(Cl)cc2OC)cc(OCCO)c1 (single isomer, unassigned) [Compound 15A]",4.4 nM
2,"COc1cc(NC(C(=O)c2c[nH]c3cc4c(cc23)CCO4)c2ccc(F)cc2OC)cc(OCCO)c1 (single isomer, unassigned) [Compound 7A]",63 nM

# Same assay, conditions: RT-qPCR serotype 3 H87
row,Compound,SI
1,"COc1cc(NC(C(=O)c2c[nH]c3ccc(S(F)(F)(F)(F)F)cc23)c2ccc(Cl)cc2OC)cc(OCCO)c1 (single isomer, unassigned) [Compound 15A]",361
2,"COc1cc(NC(C(=O)c2c[nH]c3cc4c(cc23)CCO4)c2ccc(F)cc2OC)cc(OCCO)c1 (single isomer, unassigned) [Compound 7A]",76

# Test system: DENV-4 strain H241
# Assay: Tetravalent RT-qPCR assay, serotype 4
# Format: cell-based, Dengue virus
# Conditions: Dengue virus, DENV4, Vero, 72 h, RT-qPCR serotype 4 H241, Protocol A, Vero cells, day 3
# Procedure: as §1, §2, §3, §4, §5
row,Compound,EC50
1,"COc1cc(NC(C(=O)c2c[nH]c3ccc(S(F)(F)(F)(F)F)cc23)c2ccc(Cl)cc2OC)cc(OCCO)c1 (single isomer, unassigned) [Compound 15A]",14 nM
2,"COc1cc(NC(C(=O)c2c[nH]c3cc4c(cc23)CCO4)c2ccc(F)cc2OC)cc(OCCO)c1 (single isomer, unassigned) [Compound 7A]",380 nM

# Same assay, conditions: RT-qPCR serotype 4 H241
row,Compound,SI
1,"COc1cc(NC(C(=O)c2c[nH]c3ccc(S(F)(F)(F)(F)F)cc23)c2ccc(Cl)cc2OC)cc(OCCO)c1 (single isomer, unassigned) [Compound 15A]",84
2,"COc1cc(NC(C(=O)c2c[nH]c3cc4c(cc23)CCO4)c2ccc(F)cc2OC)cc(OCCO)c1 (single isomer, unassigned) [Compound 7A]",12

# Test system: Vero cells
# Assay: not given
# Conditions: African green monkey
row,Compound,CC50
1,"COc1cc(NC(C(=O)c2c[nH]c3cc(F)ccc23)c2ccc(Cl)cc2OC)cc(OCCOP(=O)(O)O)c1 (single isomer, unassigned) [Compound 13B-P]",11000 nM
2,"COc1cc(NC(C(=O)c2c[nH]c3cc(F)c(C)cc23)c2ccc(F)cc2OC)cc(OCCO)c1 (single isomer, unassigned) [Compound 3B]",8000 nM
3,"COc1cc(NC(C(=O)c2c[nH]c3c4c(ccc23)OCC4)c2ccc(F)cc2OC)cc(OCCO)c1 (single isomer, unassigned) [Compound 8B]",12000 nM
4,"COc1cc(NC(C(=O)c2c[nH]c3ccc(S(F)(F)(F)(F)F)cc23)c2ccc(Cl)cc2OC)cc(OCCO)c1 (single isomer, unassigned) [Compound 15A]",2700 nM
5,"COc1cc(NC(C(=O)c2c[nH]c3ccc(S(F)(F)(F)(F)F)cc23)c2ccc(Cl)cc2OC)cc(OCCO)c1 (single isomer, unassigned) [Compound 15B]",5800 nM
6,"COc1cc(NC(C(=O)c2c[nH]c3ccc(C)cc23)c2ccc(F)cc2OC)cc(OCCO)c1 (single isomer, unassigned) [Compound 5B]",11000 nM

# Test system: not listed separately
# Assay: in vitro
# Conditions: African green monkey
row,Compound,CC50
1,"COc1cc(NC(C(=O)c2c[nH]c3cc4c(cc23)CCO4)c2ccc(F)cc2OC)cc(OCCO)c1 (single isomer, unassigned) [Compound 7A]",10000 nM
